Measurements taken from patent US20040191833A1, “Selective activation of cellular activities mediated through a common toll-like receptor” (3M Innovative Properties Company, priority 2003, published 2004).

How the values were obtained:
human TLR7 [1] = target: T1, human TLR7 (Homo sapiens, UniProt Q9NYK1); assay: TLR7 activation in Namalwa cells (IFN-α1 promoter luciferase reporter, N-TLR7/N-vector); assay type: cell-based; conditions: final IRM concentration 10 μM, 18 hours, normalized to the DMSO without compound control
T1 construct: expressed in transfected cells; host or cells: Namalwa cells (ATCC CRL-1432), pCI-neo vector, electroporated, G418 selected, with pIFN-α1-luc reporter
T1 sequence (Q9NYK1 27-1049): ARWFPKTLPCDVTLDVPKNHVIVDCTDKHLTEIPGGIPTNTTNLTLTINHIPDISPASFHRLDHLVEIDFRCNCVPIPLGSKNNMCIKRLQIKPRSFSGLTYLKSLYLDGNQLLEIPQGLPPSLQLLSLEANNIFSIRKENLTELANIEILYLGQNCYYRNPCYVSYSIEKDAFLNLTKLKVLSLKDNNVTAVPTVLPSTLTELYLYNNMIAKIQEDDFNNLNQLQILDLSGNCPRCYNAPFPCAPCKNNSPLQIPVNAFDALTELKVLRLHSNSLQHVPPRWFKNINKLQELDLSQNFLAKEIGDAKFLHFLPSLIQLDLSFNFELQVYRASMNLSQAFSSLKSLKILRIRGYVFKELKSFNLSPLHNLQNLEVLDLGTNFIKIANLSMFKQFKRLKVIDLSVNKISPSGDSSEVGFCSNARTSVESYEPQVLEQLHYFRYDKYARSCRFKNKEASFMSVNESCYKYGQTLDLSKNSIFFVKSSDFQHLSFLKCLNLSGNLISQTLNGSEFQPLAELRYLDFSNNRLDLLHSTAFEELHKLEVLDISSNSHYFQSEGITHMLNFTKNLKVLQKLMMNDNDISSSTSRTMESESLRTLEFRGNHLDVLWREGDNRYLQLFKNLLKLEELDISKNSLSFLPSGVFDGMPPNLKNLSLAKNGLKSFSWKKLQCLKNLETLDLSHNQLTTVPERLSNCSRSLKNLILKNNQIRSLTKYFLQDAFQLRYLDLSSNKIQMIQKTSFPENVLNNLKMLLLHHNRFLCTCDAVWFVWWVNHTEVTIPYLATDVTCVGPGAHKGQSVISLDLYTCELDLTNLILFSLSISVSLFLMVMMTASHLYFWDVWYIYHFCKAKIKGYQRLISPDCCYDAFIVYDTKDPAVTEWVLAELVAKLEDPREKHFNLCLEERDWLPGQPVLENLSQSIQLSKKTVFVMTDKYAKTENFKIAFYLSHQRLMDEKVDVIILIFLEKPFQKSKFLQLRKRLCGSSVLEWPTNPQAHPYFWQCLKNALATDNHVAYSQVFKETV
Procedure: (§1) In one embodiment, exemplified in Example 1, selective modulation of TLR7-mediated NF-κB activation and TLR7-mediated IFN-α1 induction were assayed. NF-κB activation was measured in genetically modified HEK293 cells (H-TLR7) by detecting TLR7-mediated NF-κB-dependent transcription of a luciferase reporter. IFN-α1 induction was measured in genetically modified Namalwa cells (N-TLR7) by detecting TLR-mediated IFN-α1-induced transcription of a luciferase reporter. Results are shown in Table 2 and are expressed as the fold increase in TLR7-mediated luciferase signal—(H-TLR7/H-vector) and (N-TLR7/N-vector), respectively—normalized to a control in which the cells were treated with vehicle that contained no IRM compound. In this assay, a compound was considered to induce the TLR7-mediated cellular activity if the compound generated at least a two-fold increase in the luciferase signal compared to the vector control.
Unless otherwise indicated, all incubations were performed at 37° C. with 5% CO2 at 98% humidity.
Culture medium was prepared from complete RPMI 1640 medium (BioSource International, Inc., Camarillo, Calif.). Fetal bovine serum (Atlas Biologicals, Inc., Ft. Collins, Colo.) was added to a final concentration of 7.5% (vol/vol); L-glutamine (BioSource International, Inc.) was added to 5 mM; and sodium pyruvate (BioSource International, Inc.) was added to 1 mM.
Namalwa cells were grown by incubation in culture medium overnight. Cells were harvested by centrifugation in a tabletop centrifuge (1200 RPM for 5 minutes), and then resuspended in phosphate buffered sucrose to a concentration of 1.3×10^7 cells/mL.
For each transfection, a 750 μL aliquot of the cell suspension was placed in an electroporation cuvette with 4 mm gaps. Each aliquot received transfection DNA: 10 μg of pGL3-Enhancing vector (Promega Corp., Madison, Wis.) containing the human IFN-α1 promoter cloned into the BglII site (pIFN-α1-luc), and 10 μg of pCI-neo mammalian expression vector (Promega Corp.) either (1) unmodified (N-vector) or (2) containing an expressible human TLR7 gene (N-TLR7). The cell and vector mixtures were incubated at room temperature for 5 minutes. The cells were electroporated using a BioRad Gene Pulser (BioRad Laboratories, Hercules, Calif.) set to at 500 μF capacitance and […], then incubated at room temperature for 5 minutes.
The electroporated cells were suspended in 10 mL of culture medium and incubated overnight. Dead cells and debris were removed after 24 hours using a MACS Dead Cell Removal kit (Miltenyi Biotec, Auburn, Calif.). Cells were resuspended in 10 mL of culture medium and incubated for an additional 24 hours.
Transfected cells were selected by adding G418 (Promega Corp., Madison, Wisc.) to a final concentration of 1 mg/mL and incubating the cells for seven days.
The selected transfected cells were counted and resuspended to a concentration of 1×10^6 cell per mL in culture medium. 100 μl aliquots of cells were placed in the wells of a white-walled, white-bottomed 96-well plate (Corning, Inc. Corning, N.Y.). 1.0 μL of an IRM compound from Table 1 (prepared at 1 mM in 100% DMSO) was added to some cell aliquots so that the final concentration of IRM compound was 10 μM. As a positive control, some cell aliquots were incubated with Sendai virus instead of IRM compound. As a negative control, some cell aliquots were incubated with DMSO without IRM compound. In all cases, the cells were incubated for 18 hours.
The plates were equilibrated to room temperature before 1 volume of reconstituted LucLight Plus (Packard Instruments, Meriden, Conn.) was added to each aliquot of cells. Each well of the plate was read on an LJL Analyst (LJL Biosystems, Inc., Sunnyvale, Calif.) set with a 5 minute dark adapt.
(§2) The data are expressed as fold increase in TLR7-mediated luciferase signal—(H-TLR7/H-vector) and (N-TLR7/N-vector), respectively—normalized to the DMSO without compound control.

human TLR7 [2] = target: T1, human TLR7; assay: TLR7 activation in HEK293 cells (NF-kB-luc luciferase reporter, H-TLR7/H-vector); assay type: cell-based; conditions: final IRM concentration 10 μM, 16 hours, normalized to the DMSO without compound control
Procedure: as §1
HEK293 medium was prepared from 90% Minimum Essential Medium (MEM) with 2 mM L-glutamine and Earle's Balanced Salt Solution (Invitrogen Corp., Rockville, Md.) adjusted to contain 1.5 g/L sodium bicarbonate, 0.1 mM non-essential amino acids, and 1.0 mM sodium pyruvate; 10% heat-inactivated fetal calf serum. HEK293 cells were cultured by incubating cells in HEK293 medium overnight at 37° C, 8% CO2.
Twenty-four hours before transfection, HEK293 cells were adhered to a 10 cm dish (Corning 430167, Corning Inc., Corning, N.Y.) at 37° C., 8% CO2. The cells were co-transfected with (1) pIRES (BD Biosciences Clontech, Palo Alto, Calif.) either (a) unmodified (H-vector), or (b) containing an expressible human TLR7 gene (H-TLR7), and (2) NF-kB-luc reporter (Stratagene, La Jolla, Calif.) in a 10:1 ratio with Fugene 6 transfection reagent (Roche Diagnostics Corp., Indianapolis, Ind.) following the manufacturer's instructions. The plates were incubated for 24 hours following transfection and then selected in G-418 (400 μg/mL) for two weeks. The G-418-resistant cells containing either the expressible TLR7 gene or the empty vector were expanded in HEK293 medium supplemented with G-418 for stimulation experiments.
The transfected cells were plated in white opaque 96 well plates (Costar 3917, Corning Inc., Corning, N.Y.) at a concentration of 5×10^4 cells per well in 100 μL of HEK293 media and incubated at 37° C., 8% CO2 for 4 hours. The cells were stimulated with 1 μL of IRM compounds at 1 mM in DMSO (final IRM concentration of 10 μM) or 1 μL DMSO as a control. The plates were then incubated an additional 16 hours at 37° C., 5% CO2. The luciferase signal was read using the LucLite kit (Packard Instrument Co., Meriden, Conn.). Luminescence was measured on an LMAX luminometer (Molecular Devices Corp., Sunnyvale, Calif.).
as §2

Structure (SMILES) | N-TLR7: fold increase in TLR7-mediated luciferase signal (N-TLR7/N-vector), IFN-α1 promoter reporter (human TLR7 [1]) [fold] | H-TLR7: fold increase in TLR7-mediated luciferase signal (H-TLR7/H-vector), NF-κB-dependent reporter (human TLR7 [2]) [fold]
CCCCc1nc2c(N)nc(C)c(C)c2n1CCCCNC(=O)c1ccccc1 [IRM13, N-[4-(4-amino-2-butyl-6,7-dimethyl-1H-imidazo[4,5-c]pyridin-1-yl)butyl]benzamide] | 2.6 | 1.0
CCCCCc1nc2c(N)nc3ccccc3c2n1CCCCNS(C)(=O)=O [IRM14, N-[4-(4-amino-2-pentyl-1H-imidazo[4,5-c]quinolin-1-yl)butyl]methanesulfonamide] | 3.3 | 0.9
COCCOCc1nc2c(N)nc3ccccc3c2n1CCOc1ccccc1 [IRM15, 2-[(2-methoxyethoxy)methyl]-1-(2-phenoxyethyl)-1H-imidazo[4,5-c]quinolin-4-amine] | 2.7 | 0.8
Cc1nc2c(N)nc3ccccc3c2n1CCCNC(=O)C1CCCC1 [IRM16, N-[3-(4-amino-2-methyl-1H-imidazo[4,5-c]quinolin-1-yl)propyl]cyclopentanecarboxamide] | 2.8 | 0.9
Cc1nc2c(N)nc3ccccc3c2n1CCOCCNC(=O)c1ccccc1 [IRM17, N-{2-[2-(4-amino-2-methyl-1H-imidazo[4,5-c]quinolin-1-yl)ethoxy]ethyl}benzamide] | 3.1 | 0.4
CCOCc1nc2c(N)nc3ccccc3c2n1CCCCNC(=O)N1CCOCC1 [IRM18] | 3.3 | 0.5
Cc1nc2c(N)nc3ccccc3c2n1CCOCCNS(C)(=O)=O [IRM19, N-{2-[2-(4-amino-2-methyl-1H-imidazo[4,5-c]-1-yl)ethoxy]ethyl}methanesulfonamide] | 3.3 | 0.9
CCc1nc2c(N)nc3ccccc3c2n1CCOCCNC(=O)Nc1ccccc1 [IRM20, N-{2-[2-(4-amino-2-ethyl-1H-imidazo[4,5-c]quinolin-1-yl)ethoxy]ethyl}-N′-phenylurea] | 3.7 | 0.8
CCCc1nc2c(N)nc3ccccc3c2n1CCCCS(C)(=O)=O [IRM21, 1-[4-(methylsulfonyl)butyl]-2-propyl-1H-imidazo[4,5-c]quinolin-4-amine] | 3.8 | 0.7
CCOCc1nc2c(N)nc3ccccc3c2n1CC(C)C [IRM22, 2-(ethoxymethyl)-1-(2-methylpropyl)-1H-imidazo[4,5-c]quinolin-4-amine] | 2.2 | 5.5
CCCCc1nc2c(N)nc3ccccc3c2n1CCCCCS(C)(=O)=O [IRM23, 2-butyl-1-[5-(methylsulfonyl)pentyl]-1H-imidazo[4,5-c]quinolin-4-amine] | 2.8 | 9.4
CCC(C)NC(=S)NCCn1c(CCOC)nc2c(N)nc3ccccc3c21 (stereo not drawn) [IRM24, N-{2-[4-amino-2-(2-methoxyethyl)-1H-imidazo[4,5-c]quinolin-1-yl]ethyl}-N′-sec-butylthiourea] | 3.2 | 7.9
